± gives the standard deviation of the averaged measurements.
How the values were obtained:
DECITABINE [1] = compound: T1, Nc1ncn([C@H]2C[C@H](O)[C@@H](CO)O2)c(=O)n1 [DECITABINE]; assay: surviving fraction relative to DMSO-only wells; higher = less growth inhibition; conditions: exposure time: 5 days
Procedure, shortened: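 Surviving fraction was calculated by normalising CellTiter-Glo luminescence to the median of DMSO-only wells. Tumour cell lines in log phase were seeded in 384-well plates at 250–500 cells per well, and 24 hours later were exposed continuously for five days to inhibitors at 0.5, 1, 5, 10, 50, 100, 500 and 1000 nM.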

2-METHOXYESTRADIOL = compound: COc1cc2c(cc1O)CC[C@@H]1[C@@H]2CC[C@]2(C)[C@@H](O)CC[C@@H]12 [2-METHOXYESTRADIOL]; assay: area under dose-response curve of surviving fraction (unscaled, Aref=0) (surviving fraction x log10(nM)); higher = more resistant; conditions: exposure time: 5 days; dose range 0.5-1000 nM
Procedure, shortened: (§1)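 Inhibitor was applied to tumour cell lines at eight concentrations (0.5 to 1000 nM) for five days in 384-well plates. Luminescence from CellTiter-Glo, scaled to DMSO-only wells, gave surviving fractions in three screens per line, and these were fitted by 3-parameter logistic regression with the drc R package. The area under the curve is an unscaled activity area. Aref was 0, and dose was on a log10 scale.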

LAPATINIB = compound: CS(=O)(=O)CCNCc1ccc(-c2ccc3ncnc(Nc4ccc(OCc5cccc(F)c5)c(Cl)c4)c3c2)o1 [LAPATINIB]; assay: as above; conditions: exposure time: 5 days; dose range 0.5-1000 nM
Procedure, shortened: as §1

DECITABINE [2] = compound: T1, DECITABINE; assay: as above; conditions: exposure time: 5 days; dose range 0.5-1000 nM
Procedure, shortened: as §1

DOXORUBICIN = compound: COc1cccc2c1C(=O)c1c(O)c3c(c(O)c1C2=O)C[C@@](O)(C(=O)CO)C[C@@H]3O[C@H]1C[C@H](N)[C@H](O)[C@H](C)O1 [DOXORUBICIN]; assay: as above; conditions: exposure time: 5 days; dose range 0.5-1000 nM
Procedure, shortened: as §1

NUTLIN3 = compound: COc1ccc(C2=N[C@@H](c3ccc(Cl)cc3)[C@@H](c3ccc(Cl)cc3)N2C(=O)N2CCNC(=O)C2)c(OC(C)C)c1 [NUTLIN3]; assay: as above; conditions: exposure time: 5 days; dose range 0.5-1000 nM
Procedure, shortened: as §1

[3] = compound: CCN(CC)CCCCNc1ncc2cc(-c3cc(OC)cc(OC)c3)c(NC(=O)NC(C)(C)C)nc2n1; assay: as above; conditions: exposure time: 5 days; dose range 0.5-1000 nM
Procedure, shortened: as §1

SALINOMYCIN = compound: CC[C@@H](C(=O)[C@@H](C)[C@@H](O)[C@H](C)[C@@H]1O[C@@H]([C@@H](CC)C(=O)O)CC[C@@H]1C)[C@H]1O[C@]2(C=C[C@@H](O)[C@]3(CC[C@@](C)([C@H]4CC[C@](O)(CC)[C@H](C)O4)O3)O2)[C@H](C)C[C@@H]1C [SALINOMYCIN]; assay: as above; conditions: exposure time: 5 days; dose range 0.5-1000 nM
Procedure, shortened: as §1

RESVERATROL = compound: Oc1ccc(/C=C/c2cc(O)cc(O)c2)cc1 [RESVERATROL]; assay: as above; conditions: exposure time: 5 days; dose range 0.5-1000 nM
Procedure, shortened: as §1

ABT-737 = compound: CN(C)CC[C@H](CSc1ccccc1)Nc1ccc(S(=O)(=O)NC(=O)c2ccc(N3CCN(Cc4ccccc4-c4ccc(Cl)cc4)CC3)cc2)cc1[N+](=O)[O-] [ABT-737]; assay: as above; conditions: exposure time: 5 days; dose range 0.5-1000 nM
Procedure, shortened: as §1

VISMODEGIB = compound: CS(=O)(=O)c1ccc(C(=O)Nc2ccc(Cl)c(-c3ccccn3)c2)c(Cl)c1 [VISMODEGIB]; assay: as above; conditions: exposure time: 5 days; dose range 0.5-1000 nM
Procedure, shortened: as §1

17-AAG = compound: C=CCNC1=C2C[C@@H](C)C[C@H](OC)[C@H](O)[C@@H](C)/C=C(\C)[C@H](OC(N)=O)[C@@H](OC)/C=C\C=C(/C)C(=O)NC(=CC1=O)C2=O [17-AAG]; assay: as above; conditions: exposure time: 5 days; dose range 0.5-1000 nM
Procedure, shortened: as §1

FLAVOPIRIDOL = compound: CN1CC[C@H](c2c(O)cc(O)c3c(=O)cc(-c4ccccc4Cl)oc23)[C@H](O)C1 [FLAVOPIRIDOL]; assay: as above; conditions: exposure time: 5 days; dose range 0.5-1000 nM
Procedure, shortened: as §1

Test System | surviving fraction (DECITABINE [1]; 0.5 nM) | surviving fraction (DECITABINE [1]; 1 nM) | surviving fraction (DECITABINE [1]; 5 nM) | surviving fraction (DECITABINE [1]; 10 nM) | surviving fraction (DECITABINE [1]; 50 nM) | surviving fraction (DECITABINE [1]; 100 nM) | surviving fraction (DECITABINE [1]; 500 nM) | surviving fraction (DECITABINE [1]; 1000 nM) | area under dose-response curve (2-METHOXYESTRADIOL) | area under dose-response curve (LAPATINIB) | area under dose-response curve (DECITABINE [2]) | area under dose-response curve (DOXORUBICIN) | area under dose-response curve (NUTLIN3) | area under dose-response curve [3] | area under dose-response curve (SALINOMYCIN) | area under dose-response curve (RESVERATROL) | area under dose-response curve (ABT-737) | area under dose-response curve (VISMODEGIB) | area under dose-response curve (17-AAG) | area under dose-response curve (FLAVOPIRIDOL)
A549 LUNG | 1.05 ± 0.027 | 1.031 ± 0.0066 | 1.03 ± 0.017 | 0.992 ± 0.016 | 1.03 ± 0.017 | 1.03 ± 0.03 | 1.02 ± 0.036 | 0.908 ± 0.031 | 3.25 | 3.47 | 3.29 | 2.25 | 3.26 | 3.22 | 3.11 | 3.51 | 3.54 | 3.34 | 1.64 | 2.34
C33A CERVIX | 0.969 ± 0.043 | 0.941 ± 0.064 | 0.963 ± 0.045 | 1.06 ± 0.036 | 0.9227 ± 0.0078 | 0.909 ± 0.075 | 0.697 ± 0.1 | 0.685 ± 0.082 | 2.91 | 2.92 | 3.03 | 1.46 | 3.13 | 2.88 | 2.96 | 3.17 | 3.38 | 3.15 | – | 2.27
CAL51 BREAST | 1.03 ± 0.028 | 0.98 ± 0.034 | 1 ± 0.041 | 0.952 ± 0.046 | 0.95 ± 0.12 | 0.865 ± 0.15 | 0.586 ± 0.077 | 0.481 ± 0.021 | 2.99 | 3.37 | 2.92 | 1.48 | 3.17 | 2.86 | 3.01 | 3.35 | 3.4 | 3.09 | 1.92 | 1.92
CAL72 BONE | 1.04 ± 0.069 | 1.04 ± 0.03 | 1.03 ± 0.088 | 1.028 ± 0.01 | 1.06 ± 0.097 | 1.03 ± 0.14 | 0.958 ± 0.097 | 0.782 ± 0.2 | 3.18 | 3.63 | 3.26 | 1.9 | 3.61 | 2.46 | 3.12 | 3.49 | 3.52 | 3.17 | 2.63 | 2.13
CAL120 BREAST | 0.952 ± 0.053 | 0.929 ± 0.059 | 0.948 ± 0.072 | 0.952 ± 0.044 | 0.995 ± 0.038 | 0.967 ± 0.018 | 0.806 ± 0.017 | 0.717 ± 0.037 | 3 | 3.34 | 3.03 | 1.87 | 3.14 | 2.73 | 2.03 | 3.3 | 3.33 | 3.26 | 1.76 | 2.14
CASKI CERVIX | 0.891 ± 0.044 | 0.919 ± 0.096 | 0.858 ± 0.056 | 0.898 ± 0.095 | 0.484 ± 0.033 | 0.368 ± 0.042 | 0.214 ± 0.017 | 0.209 ± 0.022 | 3.06 | 2.48 | 2.1 | 0.836 | 3.23 | 3.09 | 2.37 | 3.22 | 3.24 | 3.06 | 1.32 | 1.76

— the supplement of paper PMC6045584
